Data: patent publication US9156796B2, “Benzoimidazole-carboxylic acid amide derivatives as APJ receptor modulators” (SANOFI, priority 2013, dated 2015)

target: T1, human apelin receptor (Homo sapiens, UniProt P35414); assay: Determination of agonism on the human apelin receptor by a calcium fluorescence assay (FLIPR); type: cell-based; conditions: HEK293 cells stably transfected with human apelin receptor and Giaq protein, Fluo-4 calcium fluorescence, read-out: EC50 (APJ agonism)
T1 construct: expressed in transfected cells
T1 sequence (P35414 1-380): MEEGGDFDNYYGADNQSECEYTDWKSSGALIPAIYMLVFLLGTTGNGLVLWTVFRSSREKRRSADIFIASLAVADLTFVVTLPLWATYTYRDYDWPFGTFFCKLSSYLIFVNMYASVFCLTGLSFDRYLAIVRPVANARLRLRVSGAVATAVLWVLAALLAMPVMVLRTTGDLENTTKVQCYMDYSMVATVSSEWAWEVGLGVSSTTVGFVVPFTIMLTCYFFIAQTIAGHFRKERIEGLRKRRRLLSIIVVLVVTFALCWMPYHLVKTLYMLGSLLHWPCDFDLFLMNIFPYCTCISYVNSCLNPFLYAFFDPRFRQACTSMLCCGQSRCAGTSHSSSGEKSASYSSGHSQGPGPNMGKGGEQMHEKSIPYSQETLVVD
Summary of the method: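 Agonist EC50s come from peak intracellular calcium transients recorded by FLIPR Tetra, scaled to the 1 μM apelin-13 maximum per plate. Test system: HEK293 stably transfected with human apelin receptor plus Giaq, Fluo-4-loaded (4 μM, 1 h, 37 °C, pH 7.4 buffer with probenecid); ≥7 concentrations, triplicates.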

Row | SMILES | EC50
1 | CC(C)C[C@@H](CCC(=O)O)NC(=O)c1ccc2c(c1)nc(Cc1cccs1)n2[C@@H]1CCCC[C@H]1C [Example 70, (R)-6-Methyl-4-{[1-((1R,2R)-2-methyl-cyclohexyl)-2-thiophen-2-ylmethyl-1H-benzoimidazole-5-carbonyl]-amino}-heptanoic acid] | 179 nM
2 | CCC(CC)n1c(Cc2cccs2)nc2cc(C(=O)N[C@@H](CC(C)C)C(=O)NC3CCN(CCc4ccccc4)CC3)ccc21 [Example 338, 1-(1-Ethyl-propyl)-2-thiophen-2-ylmethyl-1H-benzoimidazole-5-carboxylic acid [(S)-3-methyl-1-(1-phenethyl-piperidin-4-ylcarbamoyl)-butyl]-amide] | 1590 nM
3 | CCC(CC)n1c(Cc2cccs2)nc2cc(C(=O)N[C@@H](CC(C)C)C(=O)NC3CCN(CC(C)C)CC3)ccc21 [Example 337, 1-(1-Ethyl-propyl)-2-thiophen-2-ylmethyl-1H-benzoimidazole-5-carboxylic acid [(S)-1-(1-isobutyl-piperidin-4-ylcarbamoyl)-3-methyl-butyl]-amide] | 331 nM
4 | CCC(CC)n1c(Cc2cccs2)nc2cc(C(=O)N[C@@H](CC(C)C)C(=O)N3CCC[C@H]3COC)ccc21 [Example 384, 1-(1-Ethyl-propyl)-2-thiophen-2-ylmethyl-1H-benzoimidazole-5-carboxylic acid [(S)-1-((S)-2-methoxymethyl-pyrrolidine-1-carbonyl)-3-methyl-butyl]-amide] | 1630 nM
5 | CCC(CC)n1c(Cc2cccs2)nc2cc(C(=O)N[C@@H](CC(C)C)C(=O)NC3CCN(C)CC3)ccc21 [Example 327, 1-(1-Ethyl-propyl)-2-thiophen-2-ylmethyl-1H-benzoimidazole-5-carboxylic acid [(S)-3-methyl-1-(1-methyl-piperidin-4-ylcarbamoyl)-butyl]-amide] | 111 nM
6 | CCC(CC)n1c(Cc2cccs2)nc2cc(C(=O)N[C@H](CCC(=O)O)CC(C)C)ccc21 [Example 163, (R)-4-{[1-(1-Ethyl-propyl)-2-thiophen-2-ylmethyl-1H-benzoimidazole-5-carbonyl]-amino}-6-methyl-heptanoic acid] | 51 nM
7 | CCC(CC)n1c(CC2CCCC2)nc2cc(C(=O)N[C@H](CO)CC(C)C)ccc21 [Example 175, 2-Cyclopentylmethyl-1-(1-ethyl-propyl)-1H-benzoimidazole-5-carboxylic acid ((S)-1-hydroxymethyl-3-methyl-butyl)-amide] | 501 nM
8 | CC(C)C[C@@H](CC(=O)O)NC(=O)c1ccc2c(c1)nc(Cc1cccs1)n2C1CCCCC1C(F)(F)F (stereo partly drawn) [Example 102, (S)-5-Methyl-3-{[2-thiophen-2-ylmethyl-1-(2-trifluoromethyl-cyclohexyl)-1H-benzoimidazole-5-carbonyl]-amino}-hexanoic acid] | 247 nM
9 | CCC(CC)n1c(Cc2cccs2)nc2cc(C(=O)N[C@@H](CC3CCCCC3)C(N)=O)ccc21 [Example 173, 1-(1-Ethyl-propyl)-2-thiophen-2-ylmethyl-1H-benzoimidazole-5-carboxylic acid ((S)-1-carbamoyl-2-cyclohexyl-ethyl)-amide] | 6700 nM
10 | CCC(CC)n1c(Cc2cccs2)nc2cc(C(=O)N[C@@H](CC(C)C)C(=O)N3CCCN(Cc4ccc(F)cc4)CC3)ccc21 [Example 324, 1-(1-Ethyl-propyl)-2-thiophen-2-ylmethyl-1H-benzoimidazole-5-carboxylic acid {(S)-1-[4-(4-fluoro-benzyl)-[1,4]diazepane-1-carbonyl]-3-methyl-butyl}-amide] | 16800 nM
11 | CCC(CC)n1c(Cc2cccs2)nc2cc(C(=O)N[C@@H](Cc3ccc(F)cc3)C(=O)O)ccc21 [Example 19, (S)-2-{[1-(1-Ethyl-propyl)-2-thiophen-2-ylmethyl-1H-benzoimidazole-5-carbonyl]-amino}-3-(4-fluoro-phenyl)-propionic acid] | 5030 nM
12 | CCC(CC)n1c(Cc2cscn2)nc2cc(C(=O)N[C@H](CO)CC(C)C)ccc21 [Example 205, 1-(1-Ethyl-propyl)-2-thiazol-4-ylmethyl-1H-benzoimidazole-5-carboxylic acid ((S)-1-hydroxymethyl-3-methyl-butyl)-amide] | 1750 nM
13 | CCC(CC)n1c(Cc2cccs2)nc2cc(C(=O)N[C@@H](CC3CC3)C(=O)O)ccc21 [Example 21, (S)-3-Cyclopropyl-2-{[1-(1-ethyl-propyl)-2-thiophen-2-ylmethyl-1H-benzoimidazole-5-carbonyl]-amino}-propionic acid] | 443 nM
14 | CCC(CC)n1c(Cc2cccs2)nc2cc(C(=O)N[C@@H](CC(C)C)C(=O)NCCCOCC3CCCO3)ccc21 (stereo partly drawn) [Example 388, 1-(1-Ethyl-propyl)-2-thiophen-2-ylmethyl-1H-benzoimidazole-5-carboxylic acid {(S)-3-methyl-1-[3-(tetrahydro-furan-2-ylmethoxy)-propylcarbamoyl]-butyl}-amide] | 1590 nM
15 | CCC(CC)n1c(Cc2cccs2)nc2cc(C(=O)N[C@@H](CC(C)C)C(=O)N3CCC(N4CCCC(C)C4)CC3)ccc21 (stereo partly drawn) [Example 281, 1-(1-Ethyl-propyl)-2-thiophen-2-ylmethyl-1H-benzoimidazole-5-carboxylic acid [(S)-3-methyl-1-(3-methyl-[1,4′]bipiperidinyl-1′-carbonyl)-butyl]-amide] | 1210 nM
16 | C[C@@H]1CCCC[C@H]1n1c(Cc2cccs2)nc2cc(C(=O)NC(CC3CCCCCC3)C(=O)O)ccc21 (stereo partly drawn) [Example 40, 3-Cycloheptyl-2-{[1-((1R,2R)-2-methyl-cyclohexyl)-2-thiophen-2-ylmethyl-1H-benzoimidazole-5-carbonyl]-amino}-propionic acid] | 915 nM
17 | CC(C)C[C@@H](CC(=O)O)NC(=O)c1ccc2c(c1)nc(Cc1cccs1)n2C1CCCCC1C (single isomer, unassigned) [Example 437] | 4910 nM
18 | CCC(CC)n1c(Cc2cccs2)nc2cc(C(=O)N[C@@H](CC(C)C)C(=O)N3CCN(c4ccc(F)cc4)CC3)ccc21 [Example 270, 1-(1-Ethyl-propyl)-2-thiophen-2-ylmethyl-1H-benzoimidazole-5-carboxylic acid {(S)-1-[4-(4-fluoro-phenyl)-piperazine-1-carbonyl]-3-methyl-butyl}-amide] | 10800 nM
19 | CCC(CC)n1c(Cc2cccs2)nc2cc(C(=O)N[C@@H](CC(C)C)C(=O)N3CCN(c4cccc(C(F)(F)F)c4)CC3)ccc21 [Example 269, 1-(1-Ethyl-propyl)-2-thiophen-2-ylmethyl-1H-benzoimidazole-5-carboxylic acid {(S)-3-methyl-1-[4-(3-trifluoromethyl-phenyl)-piperazine-1-carbonyl]-butyl}-amide] | 18500 nM
20 | CCC(CC)n1c(Cc2cccs2)nc2cc(C(=O)N[C@@H](CC(C)C)C(=O)NCC3CN(Cc4ccccc4)CCO3)ccc21 (stereo partly drawn) [Example 330, 1-(1-Ethyl-propyl)-2-thiophen-2-ylmethyl-1H-benzoimidazole-5-carboxylic acid {(S)-1-[(4-benzyl-morpholin-2-ylmethyl)-carbamoyl]-3-methyl-butyl}-amide] | 2480 nM
21 | CCC(CC)n1c(Cc2cccs2)nc2cc(C(=O)N[C@@H](CC(C)C)C(=O)N3CCN(Cc4ccccc4)CC3)ccc21 [Example 271, 1-(1-Ethyl-propyl)-2-thiophen-2-ylmethyl-1H-benzoimidazole-5-carboxylic acid [(S)-1-(4-benzyl-piperazine-1-carbonyl)-3-methyl-butyl]-amide] | 3260 nM
22 | CCC(CC)n1c(Cc2cccs2)nc2cc(C(=O)N[C@@H](CC(C)C)C(=O)N3CC4CC3CN4c3cccc(F)c3)ccc21 (stereo partly drawn) [Example 326, 1-(1-Ethyl-propyl)-2-thiophen-2-ylmethyl-1H-benzoimidazole-5-carboxylic acid {(S)-1-[5-(3-fluoro-phenyl)-2,5-diaza-bicyclo[2.2.1]heptane-2-carbonyl]-3-methyl-butyl}-amide] | 16400 nM
23 | CCC(CC)n1c(Cc2cccs2)nc2cc(C(=O)N[C@@H](CC(C)C)C(=O)NCc3ccccc3OC)ccc21 [Example 238, 1-(1-Ethyl-propyl)-2-thiophen-2-ylmethyl-1H-benzoimidazole-5-carboxylic acid [(S)-1-(2-methoxy-benzylcarbamoyl)-3-methyl-butyl]-amide] | 6550 nM
24 | CCC(CC)n1c(Cc2cccs2)nc2cc(C(=O)N[C@H](CC(=O)O)CC(C)C)ccc21 [Example 107, (S)-3-{[1-(1-Ethyl-propyl)-2-thiophen-2-ylmethyl-1H-benzoimidazole-5-carbonyl]-amino}-5-methyl-hexanoic acid] | 47 nM
25 | CCCC(CC(=O)O)NC(=O)c1ccc2c(c1)nc(Cc1cccs1)n2C(CC)CC (stereo not shown) [Example 155, 3-{[1-(1-Ethyl-propyl)-2-thiophen-2-ylmethyl-1H-benzoimidazole-5-carbonyl]-amino}-hexanoic acid] | 500 nM
26 | CC(C)C[C@@H](CC(=O)O)NC(=O)c1ccc2c(c1)nc(Cc1cccs1)n2C1CCCCC1C (single isomer, unassigned) [Example 436] | 24 nM
27 | CCC(CC)n1c(Cc2cccs2)nc2cc(C(=O)NC(CC)(C(=O)O)c3ccccc3)ccc21 (stereo not shown) [Example 7, 2-{[1-(1-Ethyl-propyl)-2-thiophen-2-ylmethyl-1H-benzoimidazole-5-carbonyl]-amino}-2-phenyl-butyric acid] | 44300 nM
28 | CC(C)C[C@H](NC(=O)c1ccc2c(c1)nc(Cc1cccs1)n2C1CCCC1C)C(=O)O (single isomer, unassigned) [Example 430] | 1310 nM
